# In patent publication US20130338130A1 (priority 2009, published 2013):
# Like-named read-outs stand apart in the source and are kept apart here.
# Legend:
# [1] = system: ATCC strain 43300 Staphylococcus aureus; conditions: ATCC strain 43300 (MRSA); cited from earlier work
# [2] = system: ATCC strain 43300 Staphylococcus aureus; conditions: for survival (cfu/ml): 24 hours, triplicate platings
# Description: Additional antibiotic was added every 24 hours. The growth periods tested were 24 (FIG. 5), 48, 72, 96 and 120 hours.
# (§1) USP<51> Antimicrobial Effectiveness protocol was used as the template experimental paradigm. […] All concentrations were plated out to the 10^−7 dilutions to ascertain cfu/ml. […] Additional antibiotic was added at the initial concentration every 24 hours.
# ATCC strain 43300 Staphylococcus aureus was streaked out for isolations. An isolated colony was chosen, streaked again and incubated. Isolate was chosen and then diluted to a McFarland standard of one. The estimated value was then taken to inoculate tubes containing growth media and 12, 30 or 60 μg/ml methicillin with approximately 10^5 cfu/ml. These tubes were incubated and plated for counting cfu.
# Material was calculated on a 10 ml volume. Sterile methicillin was added to each experimental condition to a final concentration of 12, 30 or 60 μg/ml antibiotic. Lactose Broth positive controls both with and without the 12 μg/ml, 30 μg/ml, 60 μg/ml antibiotic were inoculated with MRSA. […] Tubes were set up in singlet, but plated in triplicate, as described below.
# All tubes were then inoculated with a dilution of the selected ATCC strain 43300 Staphylococcus aureus clone giving a final level of colony forming units of 1.49×10^5/ml (log=5.17). The tubes were incubated at 25° C. and mixed periodically. Antibiotic was re-inoculated every 24 hours at the initial concentration to maintain pressure on the organism. Plating was done at 24, 48, 72, and 120 hours. Each condition was plated by diluting 1 ml of growth material into 9 ml of MLB diluent broth. […] This mixture was serial diluted down to 10^−7 with 1 ml placed in triplicate in a sterile petri dish at each dilution point. 20 mls of TSA was added to each dilution, swirled and allowed to solidify. All dilutions were placed in a 35° C. incubator for 24 to 72 hours. Bacterial colonies on each plate were counted and the average taken then changed into log format. […] Graphs were recorded as log of 5.2 for TNTC to show comparison among the other data points.
# The tubes were spun down at 5000 rpm for 10 minutes. The supernatant was then decanted into 90 mls of Mueller-Hinton broth with 6 μg/ml methicillin. This is for enrichment and the recovery of any MRSA cells that may be present wether healthy or stressed. The pellet had 10 mls Mueller-Hinton broth with 6 μg/ml methicillin added to it to recover any cells that may be present. Both vessels were incubated at 35° C. for 48 hours and plated each 24 hours. Each vessel was plated at 10 dilutions to obtain a 1 cfu detection limit. Since all vessels were at a 1/10 dilution in the enrichment solution plating each vessel in this manner gave us a detection limit of 1 cfu/ml. […] This time point for graphing purposes will be reported as 0 logs.
# [3] = system: ATCC strain 43300 Staphylococcus aureus
# Description: Additional antibiotic was added every 24 hours. The growth periods tested were 24 (see FIG. 4), 48, 72, 96 and 120 hours.
# as §1
# ATCC strain 43300 Staphylococcus aureus was streaked out for isolations. An isolated colony was chosen, streaked again and incubated. Isolate was chosen and then diluted to a McFarland standard of one. The estimated value was then taken to inoculate tubes containing growth media and 12, 30 or 60 μg/ml oxacillin with approximately 10^5 cfu/ml. These tubes were incubated and plated for counting cfu. A clone having no observed log reduction in cfu was selected for the rest of the experiment.
# Material was calculated on a 10 ml volume. Sterile oxacillin was added to each experimental condition to a final concentration of 12, 30 or 60 μg/ml antibiotic.
# All tubes were then inoculated with a dilution of the selected ATCC strain 43300 Staphylococcus aureus clone giving a final level of colony forming units of 3.3×10^5/ml (log=5.52). The tubes were incubated at 25° C. and mixed periodically. Antibiotic was re-inoculated every 24 hours at the initial concentration to maintain pressure on the organism. Plating was done at 24, 48, 72, and 120 hours. Each condition was plated by diluting 1 ml of growth material into 9 ml of MLB diluent broth. […] This mixture was serial diluted down to 10^−7 with 1 ml placed in triplicate in a sterile petri dish at each dilution point. 20 mls of TSA was added to each dilution, swirled and allowed to solidify. All dilutions were placed in a 35° C. incubator for 24 to 72 hours. Bacterial colonies on each plate were counted and the average taken then changed into log format. Any cfu/ml observed greater than 3.3×10^5 (log=5.5) were recorded as >3.3×10^5.
# The tube was then taken out of the experiment and tested for ATCC strain 43300 Staphylococcus growth. The tube was spun down at 5000 rpm for 10 minutes. The supernatant was then decanted into 90 mls of Mueller-Hinton broth with 6 μg/ml oxacillin. This is for enrichment and the recovery of any MRSA cells that may be present whether healthy or stressed. The pellet had 10 mls Mueller-Hinton broth with 6 μg/ml oxacillin added to it to recover any cells that may be present. Both vessels were incubated at 35° C. for 48 hours followed by plating every 24 hours. Each vessel was plated at 10 dilutions to obtain a 1 cfu detection limit.
smiles,measurement,setting,value
"COc1cccc(OC)c1C(=O)N[C@@H]1C(=O)N2[C@@H]1SC(C)(C)[C@@H]2C(=O)O [methicillin, reference compound]",MIC,[1],6 µg/mL
same,survival (cfu/ml),"[2]; 12 μg/ml methicillin (re-added every 24 hours) + MSM (% in label), inoculum 1.49×10^5/ml",TNTC
same,survival (cfu/ml),[2]; 30 μg/ml methicillin + MSM (% in label),TNTC
same,survival (cfu/ml),[2]; 60 μg/ml methicillin + MSM (% in label),TNTC
same,decrease in colony forming units from the initial inoculums value,"[2]; methicillin alone, 12 μg/ml, 30 μg/ml and 60 μg/ml",no significant decrease in colony forming units
"Cc1onc(-c2ccccc2)c1C(=O)N[C@@H]1C(=O)N2[C@@H]1SC(C)(C)[C@@H]2C(=O)O [oxacillin, reference compound]",MIC,[1],6 µg/mL
same,survival (cfu/ml),"[3]; 12 μg/ml oxacillin (re-added every 24 hours) + MSM (% in label), 24 hours, three columns = triplicate platings, inoculum 3.3×10^5/ml",>3.3 × 10^5 cfu/ml
same,"survival, Average Log","[3]; 12 μg/ml oxacillin + MSM (% in label), 24 hours",5.5 Log
same,"survival, Average Log","[3]; 12 μg/ml oxacillin + MSM (% in label), 48 hours",5.5 Log
same,survival (cfu/ml),"[3]; 12 μg/ml oxacillin + MSM (% in label), 48 hours, triplicate platings",>3.3 × 10^5 cfu/ml
same,"survival, Average Log","[3]; 12 μg/ml oxacillin + MSM (% in label), 72 hours",5.5 Log
same,survival (cfu/ml),"[3]; 12 μg/ml oxacillin + MSM (% in label), 72 hours, triplicate platings",>3.3 × 10^5 cfu/ml
same,"survival, Average Log","[3]; 12 μg/ml oxacillin + MSM (% in label), 96 hours",5.5 Log
same,survival (cfu/ml),"[3]; 12 μg/ml oxacillin + MSM (% in label), 96 hours, triplicate platings",>3.3 × 10^5 cfu/ml
same,"survival, Average Log","[3]; 12 μg/ml oxacillin + MSM (% in label), 120 hours",5.5 Log
same,survival (cfu/ml),"[3]; 12 μg/ml oxacillin + MSM (% in label), 120 hours, triplicate platings",>3.3 × 10^5 cfu/ml
same,"survival, Average Log","[3]; 30 μg/ml oxacillin + MSM (% in label), 24 hours",5.5 Log
same,survival (cfu/ml),"[3]; 30 μg/ml oxacillin + MSM (% in label), 24 hours, triplicate platings",>3.3 × 10^5 cfu/ml
same,"survival, Average Log","[3]; 30 μg/ml oxacillin + MSM (% in label), 48 hours",5.5 Log
same,survival (cfu/ml),"[3]; 30 μg/ml oxacillin + MSM (% in label), 48 hours, triplicate platings",>3.3 × 10^5 cfu/ml
same,"survival, Average Log","[3]; 30 μg/ml oxacillin + MSM (% in label), 72 hours",5.5 Log
same,survival (cfu/ml),"[3]; 30 μg/ml oxacillin + MSM (% in label), 72 hours, triplicate platings",>3.3 × 10^5 cfu/ml
same,"survival, Average Log","[3]; 30 μg/ml oxacillin + MSM (% in label), 96 hours",5.5 Log
same,survival (cfu/ml),"[3]; 30 μg/ml oxacillin + MSM (% in label), 96 hours, triplicate platings",>3.3 × 10^5 cfu/ml
same,"survival, Average Log","[3]; 30 μg/ml oxacillin + MSM (% in label), 120 hours",5.5 Log
same,survival (cfu/ml),"[3]; 30 μg/ml oxacillin + MSM (% in label), 120 hours, triplicate platings",>3.3 × 10^5 cfu/ml
same,"survival, Average Log","[3]; 60 μg/ml oxacillin + MSM (% in label), 24 hours",5.5 Log
same,survival (cfu/ml),"[3]; 60 μg/ml oxacillin + MSM (% in label), 24 hours, triplicate platings",>3.3 × 10^5 cfu/ml
same,"survival, Average Log","[3]; 60 μg/ml oxacillin + MSM (% in label), 48 hours",5.5 Log
same,survival (cfu/ml),"[3]; 60 μg/ml oxacillin + MSM (% in label), 48 hours, triplicate platings",>3.3 × 10^5 cfu/ml
same,"survival, Average Log","[3]; 60 μg/ml oxacillin + MSM (% in label), 72 hours",5.5 Log
same,survival (cfu/ml),"[3]; 60 μg/ml oxacillin + MSM (% in label), 72 hours, triplicate platings",>3.3 × 10^5 cfu/ml
same,"survival, Average Log","[3]; 60 μg/ml oxacillin + MSM (% in label), 96 hours",5.5 Log
same,survival (cfu/ml),"[3]; 60 μg/ml oxacillin + MSM (% in label), 96 hours, triplicate platings",>3.3 × 10^5 cfu/ml
same,"survival, Average Log","[3]; 60 μg/ml oxacillin + MSM (% in label), 120 hours",5.5 Log
same,survival (cfu/ml),"[3]; 60 μg/ml oxacillin + MSM (% in label), 120 hours, triplicate platings",>3.3 × 10^5 cfu/ml
same,decrease in colony forming units from the initial inoculums value,"[3]; oxacillin alone, 12 μg/ml, 30 μg/ml and 60 μg/ml",no significant decrease in colony forming units
